Test results from patent publication US20260317332A1, “BICYCLIC HETEROCYCLE COMPOUNDS FOR THE TREATMENT OF CANCER” (Hoffmann-La Roche Inc., priority 2023, published 2026).

Tests used:
CD73 [1] = target: T1, CD73 (Homo sapiens, UniProt P21589); experiment: Human CD73 Biochemical Assay; details: 0.05 nM recombinant CD73; AMP 5.56 μM final; 10 min at room temperature; LC/MS adenosine readout; read-out: Enzymatic IC50 against human CD73
T1 sequence (P21589 27-574): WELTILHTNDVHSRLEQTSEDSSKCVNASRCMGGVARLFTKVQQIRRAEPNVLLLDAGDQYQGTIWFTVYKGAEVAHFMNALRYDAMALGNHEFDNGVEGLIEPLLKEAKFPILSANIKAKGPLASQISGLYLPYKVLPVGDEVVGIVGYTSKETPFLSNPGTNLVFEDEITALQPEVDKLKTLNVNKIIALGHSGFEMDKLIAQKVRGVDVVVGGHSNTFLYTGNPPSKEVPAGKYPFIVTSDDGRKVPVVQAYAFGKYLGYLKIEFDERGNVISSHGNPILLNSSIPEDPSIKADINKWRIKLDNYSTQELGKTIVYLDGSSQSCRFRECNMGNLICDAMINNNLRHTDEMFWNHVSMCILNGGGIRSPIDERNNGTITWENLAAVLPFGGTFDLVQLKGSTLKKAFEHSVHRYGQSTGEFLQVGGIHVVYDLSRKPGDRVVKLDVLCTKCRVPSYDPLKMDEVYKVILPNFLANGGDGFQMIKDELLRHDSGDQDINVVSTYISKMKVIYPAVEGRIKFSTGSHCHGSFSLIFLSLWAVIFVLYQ
In short: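 Recombinant CD73 at 0.05 nM was preincubated with compound 15 min at room temperature in Tris pH 7.5 buffer with 1 mM NaH2PO4. Reaction ran 10 min with 5.56 μM AMP final and was stopped with TCA. Adenosine was quantified by LC-MS/MS MRM against a 13C5-adenosine internal standard using peak area ratios.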

CD4+ T cells = experiment: T Cell Proliferation Assay: CD4+ T cell proliferation; type: cell-based; details: Homo sapiens, high AMP condition (200 μM AMP, 5 μM EHNA), CD3/CD28 beads, 72 hours, read-out: CD4+ T cell proliferation EC50 (rescue of proliferation)
Protocol: (§1) The purpose of this assay is to characterize the potency of inhibitors of CD73 in rescuing adenosine-mediated inhibition of T cell proliferation. CD4+ or CD8+ T cells were isolated from peripheral blood mononuclear cells (PBMCs, HemaCare) by immunomagnetic negative selection using EasySep™ Isolation Kit (STEMCELL Technologies) following the supplier's protocol. Pan T cells were pelleted by centrifugation at 300 gravitational force (g) for 5 minutes at room temperature and re-suspended in PBS. CellTrace™ Violet staining solution (Invitrogen) was added at 1:5,000 and incubated at 37° C. for 20 minutes, protected from light. Complete culture medium [RPMI-1640 (Gibco), 10% Fetal Bovine Serum (Gibco), 2 mM GlutaMAX (Gibco) and 1 mM Sodium Pyruvate (Gibco), 100 U/mL Penicillin-Streptomycin (Gibco) and MEM non-essential amino acids (NEAA) cell culture supplement (1:100, Gibco)] was then added, mixed, and incubated at 37° C. for 5 minutes. Cells were then pelleted by centrifugation at 300 g for 5 minutes at room temperature and re-suspended in fresh, pre-warmed complete culture medium. 50 μL of cells were seeded per well in 96 well u-bottom plates. 50 μL of CD3/CD28 beads-containing medium and 50 μL of media containing compounds were added into cells. 50 μL of media containing AMP and EHNA hydrochloride (Sigma-Aldrich) was added into cells at 200 μM and 5 μM final concentration, respectively. Cells were incubated for 72 hours at 37° C. in a 5% CO2 incubator. 200 μL of PBS was then added to each well and cells were centrifuged at 300 g, 4° C. for 10 minutes. The supernatant was discarded. 50 μL of Human TruStain FcX™ (Fc Receptor Blocking Solution, BioLegend) diluted 1:100 in PBS was added to each well, mixed gently and incubated for 20 minutes at 4° C. 50 μL of staining solution (BioLegend) was added to each well, mixed gently and incubated at 4° C. for 30 minutes. Cells were centrifuged at 300 g, 4° C. for 10 minutes and the supernatant was discarded. The cell pellets were washed with 250 μL of cell staining buffer and centrifuged at 300 g, 4° C. for 10 minutes. The supernatant was discarded and cells were re-suspended in 60 μL of cell staining buffer and analyzed on a flow cytometer.

CD8+ T cells = experiment: T Cell Proliferation Assay: CD8+ T cell proliferation; type: cell-based; details: high AMP condition (200 μM AMP, 5 μM EHNA), CD3/CD28 beads, 72 hours, read-out: CD8+ T cell proliferation EC50 (rescue of proliferation)
Protocol: as §1

CD73 [2] = target: T1, CD73; experiment: CD73 Cellular Assay; type: cell-based; parameters: 40 μL of MDA-MB-231 cells (ATCC, HTB-26, breast cancer); host or cells: MDA-MB-231; details: MDA-MB-231 cells; 200 μM AMP working solution; 45 min at 37° C.; malachite readout; read-out: Cellular IC50 against CD73
In short: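 MDA-MB-231 cells (20,000 cells/mL) in HEPES pH 7.4 buffer preincubated 30 min with 1:3 compound dilutions, then AMP (200 μM working solution) added for 45 min at 37 °C, 5% CO2. Released phosphate in supernatant detected by malachite green absorbance at 620 nm; % inhibition normalised to neutral and inhibitor controls.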

Cn1nc(O[C@H](c2cc(OC3CC(F)(F)C3)ncn2)C(F)F)c2cc(-c3c[nH]c(=O)[nH]c3=O)nnc21 [Example 42A, 5-[3-[(1R)-1-[6-(3,3-difluorocyclobutoxy)pyrimidin-4-yl]-2,2-difluoro-ethoxy]-1-methyl-pyrazolo[3,4-c]pyridazin-5-yl]-1H-pyrimidine-2,4-dione]
IC50 (CD73 [1]): 0.06 nM
EC50 (CD4+ T cells): 0.22 nM
EC50 (CD8+ T cells): 0.18 nM
IC50 (CD73 [2]): 0.76 nM
